Reference: PubChem BioAssay AID1259407 (Chemical Carcinogenesis Research Information System (CCRIS), 2018)
The source made the active and inactive calls. The rule behind the calls is not given here.

Test system: CCRIS mutagenicity, Ames/micronucleus/aberration tests
Assay: CCRIS mutagenicity studies
[1] = Test System: AMES SALMONELLA TYPHIMURIUM, Strain/Indicator: TA98, Metabolic Activation: NONE, Method: STANDARD PLATE
[2] = Test System: AMES SALMONELLA TYPHIMURIUM, Strain/Indicator: TA100, Metabolic Activation: NONE, Method: STANDARD PLATE

SMILES: COC(C)(C)C
- mutagenic call (Test System: AMES SALMONELLA TYPHIMURIUM, Strain/Indicator: TA98, Metabolic Activation: NONE): inactive; negative
- mutagenic call (Test System: AMES SALMONELLA TYPHIMURIUM, Strain/Indicator: TA98, Metabolic Activation: NONE, Method: MICROSUSPENSION): inactive; negative
- mutagenic call [1]: inactive; negative
- mutagenic call (Test System: AMES SALMONELLA TYPHIMURIUM, Strain/Indicator: TA98, Metabolic Activation: RAT LIVER S-9): inactive; negative
- mutagenic call (Test System: AMES SALMONELLA TYPHIMURIUM, Strain/Indicator: TA98, Metabolic Activation: RAT LIVER S-9, AROCLOR 1254, Method: STANDARD PLATE): inactive; negative
- mutagenic call (Test System: AMES SALMONELLA TYPHIMURIUM, Strain/Indicator: TA98, Metabolic Activation: RAT, LIVER, S-9, AROCLOR 1254, Method: MICROSUSPENSION): inactive; negative
- mutagenic call (Test System: AMES SALMONELLA TYPHIMURIUM, Strain/Indicator: TA100, Metabolic Activation: NONE): inactive; negative
- mutagenic call (Test System: AMES SALMONELLA TYPHIMURIUM, Strain/Indicator: TA100, Metabolic Activation: NONE, Method: MICROSUSPENSION): inactive; negative
- mutagenic call [2]: inactive; negative
- mutagenic call (Test System: AMES SALMONELLA TYPHIMURIUM, Strain/Indicator: TA100, Metabolic Activation: RAT LIVER S-9): inactive; negative
- mutagenic call (Test System: AMES SALMONELLA TYPHIMURIUM, Strain/Indicator: TA100, Metabolic Activation: RAT LIVER S-9, AROCLOR 1254, Method: STANDARD PLATE): inactive; negative
- mutagenic call (Test System: AMES SALMONELLA TYPHIMURIUM, Strain/Indicator: TA100, Metabolic Activation: RAT, LIVER, S-9, AROCLOR 1254, Method: MICROSUSPENSION): inactive; negative
- mutagenic call (Test System: AMES SALMONELLA TYPHIMURIUM, Strain/Indicator: TA102, Metabolic Activation: NONE, Method: STANDARD PLATE): inactive; negative
- mutagenic call (Test System: AMES SALMONELLA TYPHIMURIUM, Strain/Indicator: TA102, Metabolic Activation: RAT, LIVER, S-9, PHENOBARBITAL-BETA-NAPHTHOFLAVONE, Method: STANDARD PLATE): inactive; negative
- mutagenic call (Test System: AMES SALMONELLA TYPHIMURIUM, Strain/Indicator: TA104, Metabolic Activation: NONE, Method: MICROSUSPENSION): inactive; negative
- mutagenic call (Test System: AMES SALMONELLA TYPHIMURIUM, Strain/Indicator: TA104, Metabolic Activation: RAT, LIVER, S-9, AROCLOR 1254, Method: MICROSUSPENSION): inactive; negative
- mutagenic call (Test System: AMES SALMONELLA TYPHIMURIUM, Strain/Indicator: TA1535, Metabolic Activation: NONE, Method: MICROSUSPENSION): inactive; negative
- mutagenic call (Test System: AMES SALMONELLA TYPHIMURIUM, Strain/Indicator: TA1535, Metabolic Activation: RAT, LIVER, S-9, AROCLOR 1254, Method: MICROSUSPENSION): inactive; negative
- mutagenic call (Test System: Ames Salmonella typhimurium, Strain/Indicator: TA98, Metabolic Activation: None, Method: Plate incorporation): inactive; negative
- mutagenic call (Test System: Ames Salmonella typhimurium, Strain/Indicator: TA98, Metabolic Activation: None, Method: Preincubation): inactive; negative
- mutagenic call (Test System: Ames Salmonella typhimurium, Strain/Indicator: TA98, Metabolic Activation: Rat, Liver, S-9, Method: Plate incorporation): inactive; negative
- mutagenic call (Test System: Ames Salmonella typhimurium, Strain/Indicator: TA98, Metabolic Activation: Rat, Liver, S-9, Method: Preincubation): inactive; negative
- mutagenic call (Test System: Ames Salmonella typhimurium, Strain/Indicator: TA100, Metabolic Activation: None, Method: Plate incorporation): inactive; negative
- mutagenic call (Test System: Ames Salmonella typhimurium, Strain/Indicator: TA100, Metabolic Activation: None, Method: Preincubation): inactive; negative
- mutagenic call (Test System: Ames Salmonella typhimurium, Strain/Indicator: TA100, Metabolic Activation: Rat, Liver, S-9, Method: Plate incorporation): inactive; negative
- mutagenic call (Test System: Ames Salmonella typhimurium, Strain/Indicator: TA100, Metabolic Activation: Rat, Liver, S-9, Method: Preincubation): inactive; negative
- mutagenic call (Test System: Ames Salmonella typhimurium, Strain/Indicator: YG1041, Metabolic Activation: None, Method: Plate incorporation): inactive; negative
- mutagenic call (Test System: Ames Salmonella typhimurium, Strain/Indicator: YG1041, Metabolic Activation: None, Method: Preincubation): inactive; negative
- mutagenic call (Test System: Ames Salmonella typhimurium, Strain/Indicator: YG1042, Metabolic Activation: None, Method: Plate incorporation): inactive; negative
- mutagenic call (Test System: Ames Salmonella typhimurium, Strain/Indicator: YG1042, Metabolic Activation: None, Method: Preincubation): inactive; negative
- mutagenic call (Test System: MOUSE LYMPHOMA, Strain/Indicator: L5178Y (TK+/TK-), Metabolic Activation: RAT, LIVER, S-9, AROCLOR 1254, Method: SUSPENSION/PLATE): active; positive
- mutagenic call (Test System: MOUSE LYMPHOMA, Strain/Indicator: L5178Y (TK+/TK-), Method: SUSPENSION/PLATE): inactive; negative
- mutagenic call (Test System: UDS MOUSE HEPATOCYTES, Strain/Indicator: THY INCORP, Metabolic Activation: NONE, Method: IN-VIVO-IN VITRO): inactive; negative
- mutagenic call (Test System: UDS RAT HEPATOCYTES, Strain/Indicator: THYMIDINE INCORPORATION, Metabolic Activation: NONE, Method: LIQUID SCINTILLATION COUNTING): active; positive
- mutagenic call (Test System: UDS RAT HEPATOCYTES, Strain/Indicator: THYMIDINE INCORPORATION, Metabolic Activation: RAT LIVER S-9, AROCLOR 1254, Method: LIQUID SCINTILLATION COUNTING): active; positive

SMILES: O=C(CCCl)N=c1sn(C(=O)CCCl)c2ccc(Cl)cc12
- mutagenic call (Test System: AMES SALMONELLA TYPHIMURIUM, Strain/Indicator: TA100, Metabolic Activation: S-9, Method: STANDARD PLATE): inactive; negative

SMILES: NC(=O)N/N=C/C(=O)O
- mutagenic call [1]: inactive; negative
- mutagenic call (Test System: AMES SALMONELLA TYPHIMURIUM, Strain/Indicator: TA98, Metabolic Activation: RAT, LIVER, S-9, AROCLOR 1254, Method: STANDARD PLATE): inactive; negative
- mutagenic call [2]: inactive; negative
- mutagenic call (Test System: AMES SALMONELLA TYPHIMURIUM, Strain/Indicator: TA100, Metabolic Activation: RAT, LIVER, S-9, AROCLOR 1254, Method: STANDARD PLATE): inactive; negative
- mutagenic call (Test System: AMES SALMONELLA TYPHIMURIUM, Strain/Indicator: TA1535, Metabolic Activation: NONE, Method: STANDARD PLATE): inactive; negative
- mutagenic call (Test System: AMES SALMONELLA TYPHIMURIUM, Strain/Indicator: TA1535, Metabolic Activation: RAT, LIVER, S-9, AROCLOR 1254, Method: STANDARD PLATE): inactive; negative
- mutagenic call (Test System: AMES SALMONELLA TYPHIMURIUM, Strain/Indicator: TA1537, Metabolic Activation: NONE, Method: STANDARD PLATE): inactive; negative
- mutagenic call (Test System: AMES SALMONELLA TYPHIMURIUM, Strain/Indicator: TA1537, Metabolic Activation: RAT, LIVER, S-9, AROCLOR 1254, Method: STANDARD PLATE): inactive; negative
- mutagenic call (Test System: AMES SALMONELLA TYPHIMURIUM, Strain/Indicator: TA1538, Metabolic Activation: NONE, Method: STANDARD PLATE): inactive; negative
- mutagenic call (Test System: AMES SALMONELLA TYPHIMURIUM, Strain/Indicator: TA1538, Metabolic Activation: RAT, LIVER, S-9, AROCLOR 1254, Method: STANDARD PLATE): inactive; negative

SMILES: Cc1cc([N+](=O)[O-])ccc1N
- mutagenic call (End Point: IN VITRO CHROMOSOMAL ABERRATIONS, Test System: CHL CELLS, Metabolic Activation: NONE): active; positive (ploidy changes)
- mutagenic call (End Point: IN VITRO CHROMOSOMAL ABERRATIONS, Test System: CHL CELLS, Metabolic Activation: RAT, LIVER, S-9, SODIUM PHENOBARBITAL AND 5,6-BENZOFLAVONE): inactive; negative; authors report equivocal results for ploidy changes at 0.25 mg/ml and
- mutagenic call (End Point: IN VITRO CHROMOSOMAL ABERRATIONS, Test System: CHL/IU CELLS, Metabolic Activation: NONE): active; positive (numerical aberrations)
- mutagenic call (End Point: IN VITRO MICRONUCLEUS, Test System: CHL/IU CELLS, Metabolic Activation: NONE): inactive; negative
- mutagenic call (Test System: AMES SALMONELLA TYPHIMURIUM, Strain/Indicator: TA98, Metabolic Activation: RAT, LIVER, S-9, PCB, Method: PREINCUBATION): inactive; negative
- mutagenic call (Test System: AMES SALMONELLA TYPHIMURIUM, Strain/Indicator: TA100, Metabolic Activation: NONE, Method: PREINCUBATION): inactive; negative
- mutagenic call (Test System: AMES SALMONELLA TYPHIMURIUM, Strain/Indicator: TA100, Metabolic Activation: RAT, LIVER, S-9, KANECHLOR 500, Method: PREINCUBATION): inactive; negative
- mutagenic call (Test System: UDS RODENT HEPATOCYTES, Strain/Indicator: THY INCORP (NON-S-PHASE), Metabolic Activation: NONE, Method: AUTORADIOGRAPHY): inactive; negative
